How the values were obtained:
[1] = target: T1, Amine oxidase [flavin-containing] B (Homo sapiens, UniProt P27338); assay: Inhibition of MAO-B (unknown origin) using p-tyramine substrate by HPLC method
T1 sequence (P27338 whole entry): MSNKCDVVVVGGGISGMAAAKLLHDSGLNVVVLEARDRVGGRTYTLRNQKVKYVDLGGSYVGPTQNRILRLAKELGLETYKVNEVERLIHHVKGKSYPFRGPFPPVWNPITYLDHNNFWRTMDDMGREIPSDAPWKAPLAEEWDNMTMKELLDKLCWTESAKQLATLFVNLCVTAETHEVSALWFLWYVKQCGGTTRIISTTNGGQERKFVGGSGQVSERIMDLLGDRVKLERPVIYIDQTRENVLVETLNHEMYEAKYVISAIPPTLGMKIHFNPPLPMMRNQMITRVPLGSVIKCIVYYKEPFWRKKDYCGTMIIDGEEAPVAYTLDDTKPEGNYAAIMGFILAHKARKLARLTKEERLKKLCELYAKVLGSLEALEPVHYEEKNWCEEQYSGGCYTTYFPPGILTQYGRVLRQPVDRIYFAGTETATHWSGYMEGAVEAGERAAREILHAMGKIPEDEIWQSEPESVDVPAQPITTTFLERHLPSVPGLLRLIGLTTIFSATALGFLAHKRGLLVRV

[2] = target: T1, Amine oxidase [flavin-containing] B; assay: Inhibition of human recombinant MAO-B expressed in insect cells by Amplex Red assay; type: cell-based
[3] = target: T1, Amine oxidase [flavin-containing] B; assay: Inhibition of human recombinant MAO-B expressed in insect cells at 10 uM by Amplex Red assay; details: read-out: INH
[4] = target: T1, Amine oxidase [flavin-containing] B; assay: Inhibition of MAO-B (unknown origin)

SMILES | IC50 [1] [µM] | also measured
COc1ccc2c(c1)C=C(/C=C/C(=O)c1ccccc1OC)CO2 | 13.7 | IC50 [2]: 0.32 µM; inhibition at 10 µM [3]: 91.6%
O=c1c(Cc2ccc(Cl)cc2)coc2cc(Cl)cc(Cl)c12 |  | IC50 [4]: 0.437 µM

More lines, main results first:

IC50 [1] [µM] | SMILES | also measured
42.8 | COc1ccccc1C(=O)/C=C/C1=Cc2cc(Br)ccc2OC1 | 
16.7 | COc1cc(OC)cc(C(=O)/C=C/C2=Cc3cc(Br)ccc3OC2)c1 | 
35.9 | COc1cccc(C(=O)/C=C/C2=Cc3cc(Br)ccc3OC2)c1 | 
18.3 | COc1cc(/C=C/C(=O)C2=Cc3cc(OC)ccc3OC2)cc(OC)c1 | 
